Four compounds from US12370237B2, “Lipopeptides for use in treating liver diseases and cardiovascular diseases” (RUPRECHT-KARLS-UNIVERSITAET HEIDELBERG, priority 2012, dated 2025) can be followed below.

The target in one experiment is T1, hNTCP (Homo sapiens, UniProt Q14973).
T1 construct: host or cells: HuH7
T1 sequence (Q14973 1-349): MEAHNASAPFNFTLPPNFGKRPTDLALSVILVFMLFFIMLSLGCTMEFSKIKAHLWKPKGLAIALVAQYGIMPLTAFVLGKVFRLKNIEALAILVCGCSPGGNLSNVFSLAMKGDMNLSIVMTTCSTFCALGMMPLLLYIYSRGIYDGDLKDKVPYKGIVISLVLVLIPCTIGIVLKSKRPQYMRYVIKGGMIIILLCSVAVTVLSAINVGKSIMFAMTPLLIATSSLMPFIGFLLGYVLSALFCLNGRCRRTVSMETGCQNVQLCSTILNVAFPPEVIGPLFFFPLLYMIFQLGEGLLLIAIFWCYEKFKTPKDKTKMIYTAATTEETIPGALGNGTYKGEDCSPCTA
Briefly: MyrB^atto binding competition assay by FACS in HuH7^hNTCP cells. As to conditions: 500 μM. As to the method:
Binding was quantified by FACS analysis.
(§1) Cells were washed (PBS/1% BSA), trypsinized, and suspended in Krebs-Henseleit-Buffer. Flow cytometry was performed on a FACS Canto II (BD Bioscience, Heidelberg, Germany); FlowJo v7.61 software (Treestar, Ashton, USA) was used for analysis. Compensation was performed using BD Compbeats (BD Bioscience, Heidelberg, Germany).
On the technique in general: Flow cytometry measures light scatter and fluorescence of single cells or particles in a stream.

Another experiment deals with HBV. The experiment is described as follows: HBV infection of differentiated HepaRG and HuH7^hNTCP cells in presence of NTCP substrates (secreted HBeAg). The experiment is classed as cell-based. The conditions noted are these: for Reduction of HBV infection (HBeAg secretion): 5 μM; for Inhibition of HBV infection as shown by HBeAg secretion: 50 μM and 500 μM.
The next experiment deals with T2, mNtcp (Mus musculus, UniProt O08705).
T2 construct: expressed in transfected cells; host or cells: HepG2
T2 sequence (O08705 1-362): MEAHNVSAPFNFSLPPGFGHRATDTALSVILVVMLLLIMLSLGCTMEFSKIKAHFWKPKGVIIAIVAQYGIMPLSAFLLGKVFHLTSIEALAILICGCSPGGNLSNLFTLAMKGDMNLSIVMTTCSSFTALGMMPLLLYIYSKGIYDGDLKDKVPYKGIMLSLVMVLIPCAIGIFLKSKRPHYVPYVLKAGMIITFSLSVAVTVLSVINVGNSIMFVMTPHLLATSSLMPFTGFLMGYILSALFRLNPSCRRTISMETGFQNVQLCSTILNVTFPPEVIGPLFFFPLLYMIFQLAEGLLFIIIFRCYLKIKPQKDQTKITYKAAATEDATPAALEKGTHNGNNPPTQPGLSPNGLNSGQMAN
The experiment is described as follows: MyrB^atto binding to HepG2^mNtcp cells (FACS). The procedure: as §1
(§2) Taking advantage of the fluorescence of the ratNTCP-eGFP fusion, we confirmed co-localisation of the MyrB/rNtcp-complex in microvilli.

The next experiment has as its target T3, ratNTCP-eGFP (Rattus norvegicus, UniProt P26435).
T3 construct: expressed in transfected cells; host or cells: HepG2
T3 sequence (P26435 1-362): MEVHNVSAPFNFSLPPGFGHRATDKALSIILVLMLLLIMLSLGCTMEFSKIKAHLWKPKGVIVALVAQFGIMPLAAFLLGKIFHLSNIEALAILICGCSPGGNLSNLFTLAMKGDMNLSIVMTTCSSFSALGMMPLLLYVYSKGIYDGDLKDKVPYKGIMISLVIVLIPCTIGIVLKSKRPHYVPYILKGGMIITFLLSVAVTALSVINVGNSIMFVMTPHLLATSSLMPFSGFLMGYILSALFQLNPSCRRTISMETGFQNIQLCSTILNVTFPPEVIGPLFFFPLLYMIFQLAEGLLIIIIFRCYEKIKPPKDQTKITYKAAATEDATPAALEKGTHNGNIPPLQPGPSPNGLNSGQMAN
Briefly: MyrB^atto binding to HepG2 ratNTCP-eGFP cells (confocal microscopy). As to the method: Note the co-localisation of hNTCP/MyrB^atto in microvilli.
Cells were washed again (3×PBS/2% BSA), fixed with PFA, washed with PBS/1 ug/ml Hoechst 3342 and mounted (FluoromountG). NTCP immune staining was achieved after permeabilisation (10 min/RT) with TritonX 100 using a α-SCL10A1/NTCP antibody (Sigma, Germany) diluted 1:750 in PBS/2% BSA (18 h at 4° C.). A polyclonal rabbit antiserum H863 was used for HBcAg-staining, a polyclonal rabbit antiserum for MRP-2 detection, patient-derived serum (M. Roggendorf, Essen) for HδAg. As secondary antibodies goat anti-rabbit or -human, labelled with either AlexaFluor488 or AlexaFluor546 (Invitrogen) was used. Actin staining was performed by the addition of atto633-labelled Phalloidin diluted 1:2000 (ATTO-Tec, Germany) to the second staining step. Images were taken on a Leica DM IRB or Leica SP2 confocal microscope (Leica, Germany), image analysis was performed using ImageJ.
as §2

Turning to `C[C@H](CCC(=O)NCCS(=O)(=O)O)[C@H]1CC[C@H]2[C@@H]3[C@H](O)C[C@@H]4C[C@H](O)CC[C@]4(C)[C@H]3C[C@H](O)[C@]12C` [TC, Taurocholate], the “Interference with MyrB^atto (preS) binding” value (“Interference with MyrB^atto” for short) on hNTCP is “profoundly interfered with preS-binding”.
With `C[C@H](CCC(=O)NCCS(=O)(=O)O)[C@H]1CC[C@H]2[C@@H]3CC[C@@H]4C[C@H](O)CC[C@]4(C)[C@H]3C[C@H](O)[C@]12C` [TDC, Taurodeoxycholate], in the experiment on HBV, the “Reduction of HBV infection (HBeAg secretion)” value was “Marginal reduction” and the “Inhibition of HBV infection as shown by HBeAg secretion” value is given as “inhibited HBV-infection”. For the same compound, the “Interference with MyrB^atto” value on hNTCP was “profoundly interfered with preS-binding”.
On to “MyrB^atto: atto-dye-labeled MyrB (atto488/atto565 NHS-ester coupled to lysine residues)”, for which the “Binding to mNtcp-expressing cells” value with mNtcp is “specific and competable binding”. The “Binding to rat NTCP-eGFP-expressing cells” value with ratNTCP-eGFP was “specific and competable binding”.
In the case of `C[C@H](CCC(=O)NCCS(=O)(=O)O)[C@H]1CC[C@H]2[C@@H]3[C@H](O)C[C@@H]4C[C@H](O)CC[C@]4(C)[C@H]3CC[C@]12C` [TCDC, Taurochenodeoxy-Cholate], in the experiment with HBV, the “Reduction of HBV infection (HBeAg secretion)” value was “Marginal reduction” and the “Inhibition of HBV infection as shown by HBeAg secretion” value was “inhibited HBV-infection”. The “Interference with MyrB^atto” value on hNTCP is “profoundly interfered with preS-binding”.
